Source: US10478501B2, “Method of treating disorders using a pharmaceutical composition of oligopeptides” (Merck Patent GmbH, priority 2011, dated 2019)

Legend:
[1] = tested on: MDA-MB-231 breast cancer bone metastases; experiment: Experimental breast cancer bone metastases in nude rats: volumes of osteolytic lesions and soft tissue components by VCT and MRI; type: in vivo, nude rats (RNU strain); settings: for Mean relative values of the OL (osteolytic lesion) volumes, increase compared to initial values at day 30 / Mean relative STC (soft tissue component) volume, increase compared to initial values at day 30: 75 mg/kg i.p. five times per week from day 30
Description: Nude rats (RNU strain) are obtained from Harlan-Winkelmann GmbH (Borchen, Germany) at the age of six weeks and housed in a specific pathogen-free environment in a mini barrier system of the central animal facility. Animals are kept under controlled conditions (21±2° C. room temperature, 60% humidity, 12 h light-dark rhythm) and offered autoclaved food and water ad libitum. Sub-confluent MDAMB-231 cells are harvested using 0.05% Trypsin-EDTA (Gibco®; Invitrogen, Karlsruhe, Germany) counted on a Neubauer's chamber and resuspended in RPMI-1640 to a final concentration of 10^5 cells in 200 μl. Rats are anesthetized using a mixture of nitrous oxide (1 l/min), oxygen (0.5 l/min) and isoflurane (1.5 vol. %). Arterial branches of the right hind leg are dissected and 10^5 cells injected into the superficial epigastric artery as described previously.^28 Bone metastases established and are observed exclusively in the femur, tibia and fibula of the right hind leg. 30 days after cancer cell transplantation, rats (n=24) are randomly divided into two groups, one group receiving the cyclic RGD-peptide inhibitor of αvβ3/αvβ5 integrins (cilengitide, EMD 121974^14, 17, 29; Merck, Darmstadt, Germany) intraperitoneally five times per week (75 mg/kg; n=12 rats) and the other, sham-treated group, serving as a control (n=12 rats). The observation period of all animals is 55 days and no rat in the study dies ahead of schedule.
After the inoculation of cancer cells each rat is imaged at days 30, 35, 45 and 55 using (i) a flat-panel equipped volumetric computed tomograph (Volume CT, Siemens, Germany) and (ii) a 1.5T clinical magnetic resonance scanner (Symphony, Siemens, Erlangen, Germany) equipped with a home-built receive-transmit coil (cylindrical volume resonator with an inner diameter of 83 mm and a usable length of 120 mm). Prior to in vivo imaging with VCT and MRI, rats are anesthetized with nitrous oxide, oxygen and isoflurane as described above.
VCT imaging is obtained using the following parameters: tube voltage 80 kV, tube current 50 mA, scan time 51 s, rotation speed 10 s, frames per second 120, matrix 512×512, and slice thickness 0.2 mm. Image reconstructions are performed using a modified FDK (Feldkamp Davis Kress) cone beam reconstruction algorithm (kernel H80a; Afra, Erlangen, Germany).
T2-weighted imaging is performed using a turbo spin echo sequence (orientation axial, TR 3240 ms, TE 81 ms, matrix 152×256, FOV 90×53.4 mm^2, slice thickness 1.5 mm, 3 averages, scan time 3 min 40 s). For dynamic contrast-enhanced MRI, a saturation recovery turbo flash sequence through the largest diameter of the tumor (orientation axial, TR 373 ms, TE 1.86 ms, matrix 192×144, FOV 130×97.5 mm, slice thickness 5 mm, measurements 512, averages 1, scan time 6 min 55 s) is used. After 20 s baseline, 0.1 mmol/kg Gd-DTPA (Magnevist; Bayer Schering Pharma, Berlin, Germany) is intravenously infused for a time period of 10 s.
Unenhanced VCT images and MRI-acquired T2-weighted images are analyzed using the Medical Imaging Interaction Toolkit (MITK, Heidelberg, Germany) to determine volumes of osteolytic lesions and soft tissue components, respectively. DCE-MRI acquired data is analyzed using the Dynalab workstation (Mevis Research, Bremen, Germany) according to the two-compartment model of Brix to determine the parameters amplitude A and exchange rate constant kep, as described.^23, 30 Briefly, the injected contrast media is distributed in both compartments (intravascular space and extravascular, interstitial space). The accumulation of contrast agent in these compartments over time is characterized by the amplitude A (associated with blood volume), whereas the exchange of contrast agent between the intravascular space and the interstitial space is characterized by the exchange rate constant kep (associated with vessel permeability). […]

[2] = tested on: 4T1 mouse breast tumour cells; experiment: Study 003: 4T1 orthotopic model (lung and liver metastases); type: in vivo, female BALB/c mice
Description: 4T1 mouse breast tumour cells were orthotopically inoculated into the third mammary fat pad of female BALB/c mice. The mice were randomised into groups when the tumors reached a size of approximately 40 mm^3.
The mice in each group received treatment with either Vehicle Control (Placebo), EMD 121974 (75, 150 or 300 mg/kg as Composition according to Example 18) or Taxol® (8 mg/kg). The Vehicle Control and EMD 121974 were administered by subcutaneous injection, daily; Taxol® was administered by intravenous injection three times per week.
Body weight and tumour volume measurements were made for all mice three times per week. The lungs and liver were excised from all mice at termination. For lung metastasis assessment surface metastases of the lungs were counted and for liver metastasis assessment H&E-stained sections of liver were assessed for the presence and number of micro-metastases.

[3] = tested on: 4T1 mouse breast tumour cells; experiment: Study 006: 4T1 survival model; type: in vivo, female BALB/c mice; settings: 300 mg/kg daily s.c. as Composition according to Example 18; mastectomy 11 days post-inoculation
Description: 4T1 mouse breast tumour cells were orthotopically inoculated into the fourth mammary fat pad of female BALB/c mice. Treatment started seven days post-inoculation (Day 0), when the mice were randomised, based on tumour size. Animals received treatment with either Vehicle Control (Placebo), EMD 121974 (75, 150 or 300 mg/kg as a Composition according to Example 18), or Taxol® (8 mg/kg). The Vehicle Control and EMD 121974 were administered daily by subcutaneous injection. Taxol® was administered three times weekly by intravenous injection. To assess the survival of tumor bearing animals a mastectomy was performed 11 days post-inoculation (4 days after treatment start). Animals were monitored daily for clinical symptoms and were culled if body weight loss in any animal exceeded 15% of initial weight, the animal was culled or disease progression was observed (e.g. severe breathing difficulties). Body weight measurements were made three times per week.

H1299 = experiment: In vitro cell viability by MTS assay, H1299; type: cell-based, human; settings: 5 μg/ml, 24 h
Description: Methods: Three non-small cell lung carcinoma lines (NSCLCs) (H460, A549 and H1299) and three head and neck squamous cell carcinoma lines (HNSCCs) (FaDu, SCC-15 and SCC-25) cell lines were used for in vitro experiments. Of these, H460 and FaDu were used for in vivo testing when grown as xenografts in nude mice. The effects of cilengitide (1-50 μg/ml, 24 h) on in vitro cell viability was determined by MTS assay and on cellular radiosensitivity by clonogenic cell survival assay after exposing the cells to graded single doses of γ-radiation with or without cilengitide (given 1 h before and continued for 23 h after irradiation). In vivo effect of cilengitide on radioresponse of xenografts was assessed by tumor growth delay. When tumor xenografts reached 7 mm in diameter cilengitide treatment (30 or 60 mg/d/5 or 10 days) was initiated followed by a single dose of 15 Gy local radiation (using ^137Cs γ-ray source), when the tumors reached 8 mm.

## CC(C)[C@H]1C(=O)N[C@@H](CCCN=C(N)N)C(=O)NCC(=O)N[C@@H](CC(=O)O)C(=O)N[C@H](Cc2ccccc2)C(=O)N1C [Cilengitide, cyclo-(Arg-Gly-Asp-DPhe-NMeVal)]
[1]; day 35 (control 1.9 fold)
  Mean relative values of the OL (osteolytic lesion) volumes, increase compared to initial values at day 30: 1.5 fold
[1]; day 35 (control 2.3 fold)
  Mean relative STC (soft tissue component) volume, increase compared to initial values at day 30: 2.2 fold
[1]; day 45 (control 4.5 fold, p<0.05)
  Mean relative values of the OL (osteolytic lesion) volumes, increase compared to initial values at day 30: 2.4 fold
[1]; day 45 (control 10.4 fold, p<0.05)
  Mean relative STC (soft tissue component) volume, increase compared to initial values at day 30: 4.9 fold
[1]; day 55 (control 9.7 fold, p<0.01)
  Mean relative values of the OL (osteolytic lesion) volumes, increase compared to initial values at day 30: 3.5 fold
[1]; day 55 (control 22.5 fold, p<0.01)
  Mean relative STC (soft tissue component) volume, increase compared to initial values at day 30: 6.3 fold
[1]; treatment group, three of 12 rats, not in control animals
  rats showing new bone formation under therapy as imaged by VCT: 25%
[2]; 75, 150 or 300 mg/kg daily s.c. as Composition according to Example 18, significant for all doses
  spontaneous liver metastasis formation: inhibited spontaneous liver metastasis formation comparable to Taxol
[2]; daily s.c. as Composition according to Example 18, significant for 300 mg/kg/day
  spontaneous lung metastasis formation: spontaneous lung metastasis formation comparable to Taxol
[3]
  survival of tumor bearing animals: comparable survival as Taxol
H1299
  in vitro viability: 27.8±4.2%
